Laboratory results reported in patent US20220315621A1, “COMPOSITIONS AND METHODS FOR TREATING CNS DISORDERS” (priority 2017, published 2022).

The molecules below were run against TBPS binding (assay: Steroid inhibition of TBPS binding). Settings: Table II-2; read-out: TBPS IC50 (μm).
For `COC[C@]1(O)C[C@H]2CC[C@@H]3[C@H](CC[C@]4(C)[C@@H](C(=O)Cn5cc(C#N)cn5)CC[C@@H]34)[C@H]2C1` [II-J11, 1-(2-((1S,3aS,3bR,5aR,7S,8aS,8bR,10aS)-7-hydroxy-7-(methoxymethyl)-10a-methylhexadecahydrodicyclopenta[a,f]naphthalen-1-yl)-2-oxoethyl)-1H-pyrazole-4-carbonitrile], the IC50 was 100 to 1000 nM.
In the case of `C[C@]1(O)CCC[C@H]2[C@H](CC[C@@H]3[C@@H]2CC[C@]2(C)[C@@H](C(=O)Cn4cc(C#N)cn4)CC[C@@H]32)C1` [II-E10, 1-(2-((1S,3aS,3bR,5aR,7S,10aS,10bR,12aS)-7-hydroxy-7,12a-dimethyloctadecahydrocyclohepta[a]cyclopenta[f]naphthalen-1-yl)-2-oxoethyl)-1H-pyrazole-4-carbonitrile], the IC50 is reported as 100 to 1000 nM.
`C[C@@]1(O)CCC[C@@]2(C)[C@@H](CC[C@@H]3[C@@H]2CC[C@]2(C)[C@@H](C(=O)Cn4cc(C#N)cn4)CC[C@@H]32)C1` [II-D5a, 1-(2-((1S,3aS,3bR,5aS,7R,10aS,10bS,12aS)-7-hydroxy-7,10a,12a-trimethyloctadecahydrocyclohepta[a]cyclopenta[f]naphthalen-1-yl)-2-oxoethyl)-1H-pyrazole-4-carbonitrile] was tested, and the IC50 was 10 to 100 nM.
`C[C@]12CC[C@@H]3[C@H]4CC[C@](C)(O)[C@@H]4CC[C@H]3[C@@H]1CC[C@@H]2C(=O)Cn1cc(C#N)cn1` [II-H19, 1-(2-((1S,3aS,3bR,5aR,6S,8aR,8bS,10aS)-6-hydroxy-6,10a-dimethylhexadecahydrodicyclopenta[a,f]naphthalen-1-yl)-2-oxoethyl)-1H-pyrazole-4-carbonitrile] showed an IC50 of 1000 to 10000 nM.
In the case of `CC(=O)[C@H]1CC[C@H]2[C@@H]3CC=C4CC[C@](C)(O)CC[C@]4(C)[C@H]3CC[C@]12C` [II-C2a, 1-((1S,3aS,3bS,8S,10aR,10bS,12aS)-8-hydroxy-8,10a,12a-trimethyl-1,2,3,3a,3b,4,6,7,8,9,10,10a,10b,11,12,12a-hexadecahydrocyclohepta[a]cyclopenta[f]naphthalen-1-yl)ethan-1-one], the IC50 is reported as 10 to 100 nM.
Work on `CC(=O)[C@H]1CC[C@H]2[C@@H]3CC=C4C[C@](C)(O)CCC[C@]4(C)[C@H]3CC[C@]12C` [II-D2a, 1-((1S,3aS,3bS,7R,10aR,10bS,12aS)-7-hydroxy-7,10a,12a-trimethyl-1,2,3,3a,3b,4,6,7,8,9,10,10a,10b,11,12,12a-hexadecahydrocyclohepta[a]cyclopenta[f]naphthalen-1-yl)ethan-1-one] yielded an IC50 of 1000 to 10000 nM.
For `CC(=O)[C@H]1CC[C@H]2[C@@H]3CC[C@@H]4C[C@](C)(O)C[C@@H]4[C@H]3CC[C@]12C` [II-G8, 1-((1S,3aS,3bR,5aR,7S,8aS,8bR,10aS)-7-hydroxy-7,10a-dimethylhexadecahydrodicyclopenta[a,f]naphthalen-1-yl)ethan-1-one], the IC50 was 100 to 1000 nM.
In the case of `CC(=O)[C@H]1CC[C@H]2[C@@H]3CC[C@H]4CC[C@](C)(O)CC[C@]4(C)[C@H]3CC[C@]12C` [II-C3, 1-((1S,3aS,3bR,5aS,8S,10aS,10bS,12aS)-8-hydroxy-8,10a,12a-trimethyloctadecahydrocyclohepta[a]cyclopenta[f]naphthalen-1-yl)ethan-1-one], the IC50 is reported as 10 to 100 nM.
Molecule `C[C@@]1(O)CCC[C@H]2[C@H](CC[C@@H]3[C@@H]2CC[C@]2(C)[C@@H](C(=O)Cn4cc(C#N)cn4)CC[C@@H]32)C1` [II-E10a, 1-(2-((1S,3aS,3bR,5aR,7R,10aS,10bR,12aS)-7-hydroxy-7,12a-dimethyloctadecahydrocyclohepta[a]cyclopenta[f]naphthalen-1-yl)-2-oxoethyl)-1H-pyrazole-4-carbonitrile] has an IC50 of 10 to 100 nM.
With `C[C@]1(O)CCC[C@@]2(C)[C@@H](CC[C@@H]3[C@@H]2CC[C@]2(C)[C@@H](C(=O)Cn4cc(C#N)cn4)CC[C@@H]32)C1` [II-D5b, 1-(2-((1S,3aS,3bR,5aS,7S,10aS,10bS,12aS)-7-hydroxy-7,10a,12a-trimethyloctadecahydrocyclohepta[a]cyclopenta[f]naphthalen-1-yl)-2-oxoethyl)-1H-pyrazole-4-carbonitrile] the IC50 was 100 to 1000 nM.
`CC(=O)[C@H]1CC[C@H]2[C@@H]3CC[C@@H]4CC[C@](C)(O)CC[C@@H]4[C@H]3CC[C@]12C` [II-F8, 1-((1S,3aS,3bR,5aR,8S,10aS,10bR,12aS)-8-hydroxy-8,12a-dimethyloctadecahydrocyclohepta[a]cyclopenta[f]naphthalen-1-yl)ethan-1-one] showed an IC50 of 100 to 1000 nM.
`CC(=O)[C@H]1CC[C@H]2[C@@H]3CC[C@@H]4CCC(=O)CC[C@@H]4[C@H]3CC[C@]12C` [II-E7a, (1S,3aS,3bR,5aR,10aS,10bR,12aS)-1-acetyl-12a-methylhexadecahydrocyclohepta[a]cyclopenta[f]naphthalen-8(1H)-one] gave an IC50 of 1000 to 10000 nM.

Same assay, conditions: Table III-1; read-out: TBPS IC50
`C[C@@]1(O)CC[C@H]2[C@@H](CCC[C@@H]3[C@@H]2CC[C@]2(C)[C@@H](C(=O)Cn4cc(C#N)cn4)CC[C@@H]32)C1` [III-A15, 1-(2-((1S,3aS,3bR,6aS,8R,10aS,10bR,12aS)-8-hydroxy-8,12a-dimethyloctadecahydrobenzo[3,4]cyclohepta[1,2-e]inden-1-yl)-2-oxoethyl)-1H-pyrazole-4-carbonitrile] was tested, and the IC50 was 100 to 1000 nM.

Same assay, conditions: Table IV-2; read-out: TBPS IC50
With `CC(=O)[C@H]1CC[C@H]2[C@@H]3C[C@H]4C[C@](C)(O)CC[C@@H]4[C@H]3CC[C@]12C` [IV-B7, 1-((3S,3aS,5aR,5bS,8R,9aS,10aR,10bS)-8-hydroxy-3a,8-dimethylhexadecahydrocyclopenta[a]fluoren-3-yl)ethan-1-one] the IC50 was 10 to 100 nM.

Each molecule was assayed against GABAA receptor (rat brain cortical membranes, [35S]-TBPS binding) (assay: not given). Settings: Table I-4; rat brain cortical membranes, 3 nM [35S]-TBPS, in the presence of 5 mM GABA.
`CC(=O)[C@H]1CCC[C@H]2[C@@H]3CC[C@H]4C[C@](C)(O)CC[C@]4(C)[C@H]3CC[C@]12C` [I-K2, 1-((1S,4aS,4bR,6aS,8R,10aS,10bS,12aS)-8-hydroxy-8,10a,12a-trimethyloctadecahydrochrysen-1-yl)ethan-1-one] gave an IC50 of 10 to 100 nM.
In the case of `CCN(CC)C(=O)[C@H]1CCC[C@H]2[C@@H]3CC[C@H]4C[C@@](O)(COC)CC[C@@H]4[C@H]3CC[C@]12C` [I-M3, (1S,4aS,4bR,6aS,8R,10aS,10bR,12aS)—N,N-diethyl-8-hydroxy-8-(methoxymethyl)-12a-methyloctadecahydrochrysene-1-carboxamide], the IC50 is reported as 100 to 1000 nM.
With `COC[C@@]1(O)CC[C@H]2[C@@H](CC[C@@H]3[C@@H]2CC[C@]2(C)[C@@H](C(=O)NCc4ccccc4)CCC[C@@H]32)C1` [Compound I-25, (1S,4aS,4bR,6aS,8R,10aS,10bR,12aS)-N-benzyl-8-hydroxy-8-(methoxymethyl)-12a-methyloctadecahydrochrysene-1-carboxamide] the IC50 was 10 to 100 nM.

Same assay, conditions: Table I-5; rat brain cortical membranes, 3 nM [35S]-TBPS, in the presence of 5 mM GABA
`COC[C@@]1(O)CC[C@H]2[C@H](CC[C@@H]3[C@@H]2CC[C@]2(C)[C@H](C(=O)Nc4ccccc4)C[C@@H]32)C1` [I-AC8a, (1R,2aS,2bR,4aR,6R,8aS,8bR,10aS)-6-hydroxy-6-(methoxymethyl)-10a-methyl-N-phenylhexadecahydrocyclobuta[a]phenanthrene-1-carboxamide] showed an IC50 of 1000 to 10000 nM.
Work on `COC[C@@]1(O)CC[C@H]2[C@H](CC[C@@H]3[C@@H]2CC[C@]2(C)[C@@H](C(=O)N4CCCC[C@@H]4C)C[C@@H]32)C1` [I-AC9, ((1S,2aS,2bR,4aR,6R,8aS,8bR,10aS)-6-hydroxy-6-(methoxymethyl)-10a-methylhexadecahydrocyclobutaialphenanthren-1-yl)((S)-2-methylpiperidin-1-yl)methanone] yielded an IC50 of 1000 to 10000 nM.
With `C[C@@]1(O)CC[C@@]2(C)[C@H](CC[C@@H]3[C@@H]2CC[C@]2(C)[C@@H](C(=O)Cn4ccnn4)C[C@@H]32)C1` [Compound I-107a, 1-((1S,2aS,2bR,4aR,6R,8aS,8bS,10aS)-6-hydroxy-6,8a,10a-trimethylhexadecahydrocyclobuta[a]phenanthren-1-yl)-2-(1H-1,2,3-triazol-1-yl)ethan-1-one] the IC50 was 1000 to 10000 nM.
For `C[C@@]1(O)CC[C@@]2(C)[C@H](CC[C@@H]3[C@@H]2CC[C@]2(C)[C@@H](C(=O)Cn4cc(C#N)cn4)C[C@@H]32)C1` [Compound I-106, 1-(2-((1S,2aS,2bR,4aR,6R,8aS,8bS,10aS)-6-hydroxy-6,8a,10a-trimethylhexadecahydrocyclobuta[a]phenanthren-1-yl)-2-oxoethyl)-1H-pyrazole-4-carbonitrile], the IC50 was 100 to 1000 nM.
Work on `CC(=O)[C@H]1C[C@H]2[C@@H]3CC[C@@H]4C[C@](C)(O)CC[C@]4(C)[C@H]3CC[C@]12C` [Compound I-103, 1-((1S,2aS,2bR,4aR,6R,8aS,8bS,10aS)-6-hydroxy-6,8a,10a-trimethylhexadecahydrocyclobuta[a]phenanthren-1-yl)ethan-1-one] yielded an IC50 of 100 to 1000 nM.

Same assay, conditions: Table I-6; rat brain cortical membranes, 3 nM [35S]-TBPS, in the presence of 5 mM GABA
`C[C@@]1(O)CC[C@H]2[C@H](CC[C@@H]3[C@@H]2CC[C@]2(C)[C@@H](CO)CCCC[C@@H]32)C1` [I-BA5b, (2R,4aS,4bR,6aS,7S,11aS,11bR,13aR)-7-(hydroxymethyl)-2,6a-dimethyloctadecahydro-1H-cyclohepta[a]phenanthren-2-ol] was tested, and the IC50 was 100 to 1000 nM.
Molecule `C[C@@]1(O)CC[C@H]2[C@H](CC[C@@H]3[C@@H]2CC[C@]2(C)[C@H](O)CCCC[C@@H]32)C1` [I-BA12, (2R,4aS,4bR,6aS,7R,11aS,11bR,13aR)-2,6a-dimethyloctadecahydro-1H-cyclohepta[a]phenanthrene-2,7-diol] has an IC50 of 1000 to 10000 nM.
